Consider eight compounds from BindingDB's records for doi:10.1021/jm00010a019 (Boehringer Ingelheim Pharmaceuticals, 1995).

In the experiment the target is T1, Renin (Homo sapiens, UniProt P00797).
T1 sequence (P00797 whole entry): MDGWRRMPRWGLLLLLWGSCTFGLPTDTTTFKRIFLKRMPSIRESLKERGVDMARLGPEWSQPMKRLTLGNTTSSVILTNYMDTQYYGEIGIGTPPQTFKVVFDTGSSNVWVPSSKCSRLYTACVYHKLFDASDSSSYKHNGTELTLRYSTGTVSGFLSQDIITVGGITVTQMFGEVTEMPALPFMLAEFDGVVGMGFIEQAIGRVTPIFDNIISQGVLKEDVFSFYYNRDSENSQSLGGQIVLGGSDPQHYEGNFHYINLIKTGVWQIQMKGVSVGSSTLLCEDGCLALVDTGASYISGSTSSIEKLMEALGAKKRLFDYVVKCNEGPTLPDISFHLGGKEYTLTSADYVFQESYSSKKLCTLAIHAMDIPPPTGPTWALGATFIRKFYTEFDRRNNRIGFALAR
Description: Component acylation rate constant by the compound against Renin was determined.

The term koff denotes the first-order rate constant of dissociation. A low value points to a long-lived complex. `CC(C)C[C@H](O)[C@H](O)[C@H](CC1CCCCC1)NC(=O)[C@@H](CC(=O)N(CC(=O)N(C)CCc1ccccn1)CC1CCCCC1)Cc1csc(N)n1` [2-(2-Amino-thiazol-4-ylmethyl)-N*4*-cyclohexylmethyl-N*1*-(1-cyclohexylmethyl-2,3-dihydroxy-5-methyl-hexyl)-N*4*-{[methyl-(2-pyridin-2-yl-ethyl)-carbamoyl]-methyl}-succinamide(BILA 2157 BS)] showed a koff of 0.00028 s⁻¹.

Compound `COC1(CN(CC(=O)N(C)CCc2ccccn2)C(=O)C[C@@H](Cc2csc(N)n2)C(=O)N[C@@H](CC2CCCCC2)[C@@H](O)[C@@H](O)CC(C)C)CCCCC1` [(R)-2-(2-Amino-thiazol-4-ylmethyl)-N*1*-((1S,2R,3S)-1-cyclohexylmethyl-2,3-dihydroxy-5-methyl-hexyl)-N*4*-(1-methoxy-cyclohexylmethyl)-N*4*-{[methyl-(2-pyridin-2-yl-ethyl)-carbamoyl]-methyl}-succinamide] returned a koff of 0.00175 s⁻¹.

In turn, `CC(C)C[C@H](O)[C@H](O)[C@H](CC1CCCCC1)NC(=O)[C@@H](CC(=O)N(CC(=O)N(C)CCc1ccccn1)CC1(C)CCCCC1)Cc1csc(N)n1` [(R)-2-(2-Amino-thiazol-4-ylmethyl)-N*1*-((1S,2R,3S)-1-cyclohexylmethyl-2,3-dihydroxy-5-methyl-hexyl)-N*4*-(1-methyl-cyclohexylmethyl)-N*4*-{[methyl-(2-pyridin-2-yl-ethyl)-carbamoyl]-methyl}-succinamide] came in with a koff of 0.000569 s⁻¹.

Compound `CC(C)C[C@H](O)[C@H](O)[C@H](CC1CCCCC1)NC(=O)[C@@H](CC(=O)N(CC(=O)N(C)CCN(C)C(=O)N1CCOCC1)[C@@H](C)c1ccccc1)Cc1csc(N)n1` [(R)-2-(2-Amino-thiazol-4-ylmethyl)-N*1*-((1S,2R,3S)-1-cyclohexylmethyl-2,3-dihydroxy-5-methyl-hexyl)-N*4*-[(methyl-{2-[methyl-(morpholine-4-carbonyl)-amino]-ethyl}-carbamoyl)-methyl]-N*4*-((S)-1-phenyl-ethyl)-succinamide] showed a koff of 0.00133 s⁻¹.

With `CC(C)C[C@H](O)[C@H](O)[C@H](CC1CCCCC1)NC(=O)[C@@H](CC(=O)N(CC(=O)N(C)CCN1CCOCC1)[C@@H](C)c1ccccc1)Cc1csc(N)n1` [(R)-2-(2-Amino-thiazol-4-ylmethyl)-N*1*-((1S,2R,3S)-1-cyclohexylmethyl-2,3-dihydroxy-5-methyl-hexyl)-N*4*-{[methyl-(2-morpholin-4-yl-ethyl)-carbamoyl]-methyl}-N*4*-((S)-1-phenyl-ethyl)-succinamide], the koff was 0.00481 s⁻¹.

In turn, `CC(C)C[C@H](O)[C@H](O)[C@H](CC1CCCCC1)NC(=O)[C@@H](CC(=O)N(CC(=O)N(C)CCc1ccccn1)[C@@H](C)c1ccccc1)Cc1csc(N)n1` [(R)-2-(2-Amino-thiazol-4-ylmethyl)-N*1*-((1S,2R,3S)-1-cyclohexylmethyl-2,3-dihydroxy-5-methyl-hexyl)-N*4*-{[methyl-(2-pyridin-2-yl-ethyl)-carbamoyl]-methyl}-N*4*-((S)-1-phenyl-ethyl)-succinamide] had an off-rate (koff) of 0.00135 s⁻¹.

As for `CC(C)C[C@H](O)[C@H](O)[C@H](CC1CCCCC1)NC(=O)[C@@H](CC(=O)N(CC(=O)N(C)CCC(=O)N1CCOCC1)[C@@H](C)c1ccccc1)Cc1csc(N)n1` [(R)-2-(2-Amino-thiazol-4-ylmethyl)-N*1*-((1S,2R,3S)-1-cyclohexylmethyl-2,3-dihydroxy-5-methyl-hexyl)-N*4*-{[methyl-(3-morpholin-4-yl-3-oxo-propyl)-carbamoyl]-methyl}-N*4*-((S)-1-phenyl-ethyl)-succinamide], the off-rate constant (koff) turned out to be 0.0013 s⁻¹.

As for `CC(C)C[C@H](O)[C@H](O)[C@H](CC1CCCCC1)NC(=O)[C@@H](CC(=O)N(CC(=O)N(C)CCc1ccccn1)CC1CCCCCC1)Cc1csc(N)n1` [(R)-2-(2-Amino-thiazol-4-ylmethyl)-N*4*-cycloheptylmethyl-N*1*-((1S,2R,3S)-1-cyclohexylmethyl-2,3-dihydroxy-5-methyl-hexyl)-N*4*-{[methyl-(2-pyridin-2-yl-ethyl)-carbamoyl]-methyl}-succinamide], the koff was 0.000234 s⁻¹.
